Patent publication US6069156A, “Indole derivatives as cGMP-PDE inhibitors” (Fujisawa Pharmaceutical Co., Ltd., priority 1995, dated 2000)
pIC50: −log10 of the molar value. Like-named read-outs stand apart in the source and are kept apart here.

Key:
cGMP-PDE = target: T1, cGMP-PDE (Homo sapiens, UniProt O76074); assay: cGMP-phosphodiesterase (PDE) Assay (human platelets); type: biochemical
T1 construct: cGMP-PDE was separated from other isozymes in human platelets; from tissue; host or cells: human platelets
Procedure: cGMP-phosphodiesterase (PDE) Assay
cGMP-PDE was separated from other isozymes in human platelets by a modification of the method of Thompson et. al. (Cyclic Nucleotide Phosphodiesterase (PDE), in Methods of Enzymatic analysis, Vol 4, p127-234, 1984). In enzyme inhibition assays, the test compounds were dissolved in 10% DMSO and then diluted with assay buffer (50 mM Tris-HCl, pH 8.0, 0.1 mM dithiothreitol, 2 mM EGTA and 10 u/ml snake venom), at final concentrations ranging from 10^-10 to 10^-6 M. Assays were performed at 0.1 μM substrate ([^3 H]-cGMP) concentration, at 30° C. for 10 minutes using enzyme dilutions which gave 10-20% hydrolysis of substrate. Each assay was initiated by addition of substrate and terminated by addition of anion exchange resin (Dowex 1-X8, 25 μg/mg) followed by centrifugation for 10 minutes (3000 rpm, at 4° C.). Radioactivity of supernatant (^3 H-GMP) was assayed by liquid scintillation counting.

[1] = tested on: aorta (spirally cut strips); assay: Smooth Muscle Relaxant: noradrenaline-contracted rat aorta strips; parameters: species or system male Wistar rats; conditions: contraction by noradrenaline 1 μM, 37° C.
Procedure: The aorta were carefully removed from male Wistar rats, cleaned of fat and extraneous tissue. Spirally cut strips of the aorta were placed in a 25 ml organ bath containing Tyrode solution of the following composition (mM); NaCl, 137; KCl, 2.7; CaCl2, 1.8; NaH2 PO4, 0.4; NaHCO3, 12.0; MgSO4, 1.1; glucose, 5.6. The bath was maintained at 37° C. and bubbled with 95% O2 and 5% CO2. The spirally cut strip was stretched to a resting force of 1.0 g, and the isometric contraction was recorded via a force development transducer on an ink writing recorder. Tissues were equilibrated for 60 minutes before contraction was induced by noradrenaline (NA, 1 μM). The test compounds were cumulatively added to organ bath in increasing concentrations ranging from 10^-8 to 10^-5 M, after maximum stable constriction to NA had been achieved.

[2] = tested on: Coronary vasospasm induced with vasopressin; assay: Vasopressin Induced-vasospasm Model (ST segment depression); type: in vivo, Male Donryu rats; conditions: 10 mg/kg orally 30 minutes before vasopressin 0.2 iu/kg
Procedure: Vasopressin Induced-vasospasm Model
Male Donryu rats, weighing 160-200 g, were anesthetized intraperitoneally with sodium pentobarbital (60 mg/kg) 15 minutes before intravenous administration of vasopressin, and the femoral vein was cannulated with polyethylene tubing (diameter 0.8 mm). Coronary vasospasm was induced with vasopressin (0.2 iu/kg) dissolved in saline through the cannula in the femoral vein. The each test compound (10 mg/kg) was administered orally 30 minutes before the administration of vasopressin. The standard limb lead II of the electrocardiogram was recorded with an electrocardiograph. The depression of ST segment was measured as the difference in the amplitudes of the ST segment after and just before the administration of vasopressin. The amplitudes of ST segment were measured at intervals of 0.5 minutes for 5 minutes after administration of vasopressin.

[3] = tested on: Vascular smooth muscle cells (vSMCs); assay: vSMC Proliferation ([3H]-thymidine, PDGF-stimulated); type: cell-based, male Wistar rats; conditions: Rattus norvegicus, PDGF 10 ng/ml stimulation
Procedure: Vascular smooth muscle cells (vSMCs) were prepared from explants of the thoracic aorta of 10 week old male Wistar rats by a modification of the method of Ross (J. Cell Biol., 50: 172, 1971). They were cultured in DMEM containing 10% fetal calf serum, 1% penicillin G and 1% streptomycin at 37° C. in a 95% air, 5% CO2 humidified atmosphere. vSMCs were seeded in 24 well plates and cultured in the presence of 10% fetal calf serum for 3 days. Cell growth then was arrested by transfer to serum free DMEA. After 24 hours, each test compound or vehicle was added to medium for 1 hour, and then cells were stimulated by PDGF (10 ng/ml). After 24 hours of additional incubation, [^3 H]-thymidine (1 μCi/ml) was added during the final 4 hours of incubation time, and trichloracetic acid insoluble radioactivity was assayed by liquid scintillation counting.

Cyclosporin nephritis = assay: Cyclosporin Nephritis Model; type: in vivo, Spontaneously hypertensive rats; conditions: 3.2 mg/kg orally twice a day for two weeks; cyclosporin 50 mg/kg daily
Procedure: Cyclosporin Nephritis Model
Spontaneously hypertensive rats weighing 250-300 g were used. Cyclosporin dissolved in olive-oil containing 5% ethanol was given orally to the animals in a daily dose 50 mg/kg for 2 weeks. After the last dosing of cyclosporin, 24-hours urine was collected for urinalysis. Blood was withdrawn from the abdominal aorta under ether anesthesia 24 hours after the last dosing of cyclosporin, and plasma was separated by centrifugation for biochemical analysis. The animal were bled to death and kidneys were removed for histopathological examination.
The each test compound (3.2 mg/kg) was dissolved in PEG 400 and given orally by the volume of 1 ml/kg twice a day for two weeks.
(§1) Biochemistry and urinalysis: Urine volume, plasma creatinine, urine creatinine, blood urea nitrogen, plasma sodium, urine sodium, plasma potassium and urine potassium, were measured with an autoanalyzer (TBA-20R Toshiba, OM-6020 Daiichi Kagaku).
Histopathology: The kidneys were fixed in phosphate-buffered 10% formalin and its paraffin specimens were prepared and these sections were stained with hematoxylin.

[4] = Toxicity by repetitive oral administration; type: in vivo, SD rat; conditions: 32 mg/kg once a day orally, 14 consecutive days
[5] = tested on: Genital Grooming and Penile Erection; assay: Effect on Genital Grooming and Penile Erection in Male Mice; type: in vivo, male ICR mice; conditions: oral; observed for one hour; n=10
Procedure: (d) Effect of Tested Compound on Genital Grooming and Penile Erection in Male Mice
Eight weeks old male ICR mice were housed under standard conditions of temperature, lighting and water supply before the experiment.
The test compound was dissolved in PEG400. After oral administration of the test compound, each mouse was transferred to an individual cage.

FK506-induced nephritis = assay: Prevention of Experimental FK506-induced Nephritis by Cyclic Nucleotide Regulating Drugs (b); type: in vivo, male Sprague-Dawley rats; conditions: 20 mg/kg intramuscularly 30 minutes before FK506 10 mg/kg/day, 14 days
Procedure: (b) Prevention of Experimental FK506-induced Nephritis by Cyclic Nucleotide Regulating Drugs
FK506 was administered orally to male Sprague-Dawley rats (body weights; 292-329 g) fed with low sodium diet (0.05% Sodium) in a daily dose of 10 mg/kg/day for 14 days. FK506 was provided in a solid dispersion formulation and dissolved in distilled water to a final concentration of 2 mg/ml. Papaverine was dissolved in saline to 5 mg/ml. Dipyridamole (i.v. formulation; 5 mg/ml) was purchased from Dainippon Pharmaceutical Co., Ltd. Papaverine (20 mg/kg) or dipyridamole (20 mg/kg) was administered intramuscularly 30 minutes before FK506 dosing. After the final dosing of FK506, 24-hours urine was collected for urinalysis. Blood was withdrawn from the abdominal aorta under ether anesthesia 24 hours after final dosing of FK506, and plasma was separated for biochemical analysis and plasma renin activity measurements. The kidney was removed from each animal and was fixed with in 10% formalin solution for histological analysis.

FK506 nephritis = assay: FK506 Nephritis Model (a); type: in vivo, Spontaneously hypertensive rats; conditions: orally twice a day for two weeks; FK506 18 mg/kg daily for 1 week
Procedure: (a) Spontaneously hypertensive rats weighing 250-300 g were used. FK506 dissolved in olive-oil containing 5% ethanol was given orally to the animals in a daily dose 18 mg/kg for 1 week. After the last dosing of FK506, 24-hours urine was collected for urinalysis. Blood was withdrawn from the abdominal aorta under ether anesthesia 24 hours after the last dosing of FK506, and plasma was separated by centrifugation for biochemical analysis.
The each test compound was dissolved in PEG 400 and given orally by the volume of 1 ml/kg twice a day for two weeks.
as §1

[6] = 0.1 μM [3H]-cGMP, 30° C., 10 minutes, read-out: IC50

Structure (SMILES)	pIC50 (cGMP-PDE)	pIC50 [1]	inhibiting activity (depression of ST segment) [2]	also measured
CCCc1c(C(=O)C(C)C)c2ccc(C(N)=O)cc2n1Cc1ccccc1C [37-(4), 3-Isobutyryl-1-(2-methylbenzyl)-2-propylindole-6-carboxamide]	> 7.00	> 7.00		
CCCc1c(C(=O)C(C)C)c2ccc(C(N)=O)cc2n1Cc1ccccc1[N+](=O)[O-] [37-(7), 3-Isobutyryl-1-(2-nitrobenzyl)-2-propylindole-6-carboxamide]	> 7.00	> 7.00		
CCCc1c(C(=O)C(C)C)c2ccc(C(N)=O)cc2n1Cc1ccc(F)cc1Cl [37-(9), 1-(2-Chloro-4-fluorobenzyl)-3-isobutyryl-2-propylindole-6-carboxamide]	> 7.00	> 7.00		
CCc1c(C(=O)C(C)C)c2ccc(C(N)=O)cc2n1Cc1ccccc1Cl [37-(12), 1-(2-Chlorobenzyl)-2-ethyl-3-isobutyrylindole-6-carboxamide]	> 7.00	> 7.00	more than 50%	
CCCc1c(C(=O)c2ccccc2)c2ccc(C(N)=O)cc2n1Cc1ccccc1Cl [38-(1), 3-Benzoyl-1-(2-chlorobenzyl)-2-propylindole-6-carboxamide]			more than 50%	
CCCc1c(C(=O)C2CC2)c2ccc(C(N)=O)cc2n1Cc1cc2c(cc1Cl)OCO2 [73-(33), 1-(6-Chloro-3,4-methylenedioxybenzyl)-3-cyclopropanecarbonyl-2-propylindole-6-carboxamide]	> 7.00	> 7.00		
CCCc1c(C(=O)C2CCCC2)c2ccc(C(N)=O)cc2n1Cc1ccccc1Cl [73-(36), 1-(2-Chlorobenzyl)-3-cyclopentanecarbonyl-2-propylindole-6-carboxamide]	> 7.00	> 7.00		
NC(=O)c1ccc2c3c(n(Cc4cc5c(cc4Cl)OCO5)c2c1)C(=O)CCC3 [75-(8), 9-(6-Chloro-3,4-methylenedioxybenzyl)-8-oxo-5,6,7,8-tetrahydrocarbazole-2-carboxamide]		> 7.00		pIC50 (cGMP-PDE; [6]): > 7.00
CCCc1c(C(C)=O)c2ccc(C(N)=O)cc2n1Cc1ccccc1Cl [Example 3, 3-acetyl-1-(2-chlorobenzyl)-2-propylindole-6-carboxamide]	> 7.00		more than 50%	pIC50 [3]: > 7.00; recovery in a measure of blood urea nitrogen (Cyclosporin nephritis): more than 50%; recovery in a measure of creatinine clearance (ml/kg/min) (Cyclosporin nephritis): more than 40%
CC(C)Cc1c(C(=O)C(C)C)c2ccc(C(N)=O)cc2n1Cc1ccccc1Cl [Example 12, 1-(2-Chlorobenzyl)-2-isobutyl-3-isobutyrylindole-6-carboxamide]	> 7.00	> 7.00	more than 50%	
CCCc1c(C(=O)COC)c2ccc(C(N)=O)cc2n1Cc1cc2c(cc1Cl)OCO2 [Example 27-(8), 1-(6-Chloro-3,4-methylenedioxybenzyl)-3-methoxyacetyl-2-propylindole-6-carboxamide]	> 7.00	> 7.00		death on repetitive oral administration [4]: the dead at dose of 32 mg/kg once a day for 14 consecutive days could not be observed; pIC50 [3]: > 7.00; increase of the frequencies of genital grooming (average) [5]: 266%; lengthening of the duration of penile erection (average) [5]: 171%
CCC(=O)c1c(CC)n(Cc2ccccc2Cl)c2cc(C#N)ccc12 [Example 42, 1-(2-chlorobenzyl)-2-ethyl-3-propionylindole-6-carbonitrile]	> 7.00		more than 50%	
CCc1c(C(=O)C(C)C)c2ccc(C#N)cc2n1Cc1ccccc1Cl [Example 43, 1-(2-Chlorobenzyl)-2-ethyl-3-isobutyrylindole-6-carbonitrile]	> 7.00	> 7.00	more than 50%	
CCCc1c([N+](=O)[O-])c2ccc(C(=O)OC)cc2n1Cc1ccccc1Cl [Example 72, methyl 1-(2-chlorobenzyl)-3-nitro-2-propylindole-6-carboxylate]		> 7.00		pIC50 (cGMP-PDE; [6]): > 7.00
COc1ccc(Cc2nccc3cc(OC)c(OC)cc23)cc1OC [Papaverine]				recovery in a measure of blood urea nitrogen (FK506-induced nephritis): more than 50%; recovery in a serum creatinine (FK506-induced nephritis): more than 50%; renofunction of FK506 dosed rats (FK506-induced nephritis): significantly improved renofunction
CCCc1nn(C)c2c(=O)[nH]c(-c3cc(S(=O)(=O)N4CCN(C)CC4)ccc3OCC)nc12 [compound (IX), reference compound]				recovery in a measure of blood urea nitrogen (Cyclosporin nephritis): more than 50%; recovery in a measure of creatinine clearance (ml/kg/min) (Cyclosporin nephritis): more than 40%
O=C(O)C1CCN(c2nc(NCc3ccc4c(c3)OCO4)c3cc(Cl)ccc3n2)CC1 [compound (VIII), reference compound]				recovery in a measure of blood urea nitrogen (Cyclosporin nephritis): more than 50%; recovery in a measure of creatinine clearance (ml/kg/min) (Cyclosporin nephritis): more than 40%; recovery in a measure of creatinine clearance (ml/kg/min) (FK506 nephritis): more than 45%; recovery in urinary sodium excretion (FK506 nephritis): more than 50%
OCCN(CCO)c1nc(N2CCCCC2)c2nc(N(CCO)CCO)nc(N3CCCCC3)c2n1 [dipyridamole, Dipyridamole]				recovery in a measure of blood urea nitrogen (FK506-induced nephritis): more than 50%; recovery in a serum creatinine (FK506-induced nephritis): more than 50%; renofunction of FK506 dosed rats (FK506-induced nephritis): significantly improved renofunction
